Details: for Fluorescence decay of fluorescein (FL), in words: 200 μM each, CuCl2 230 μM, CaCl2 2.3 mM
Experimental: The study was conducted in accordance with the methodology disclosed in “Novel Fluorometric Assay for Hydroxyl Radical Prevention Capacity Using Fluorescein as the Probe”, B Ou, M Hampsch-Woodill, J Flanagan, EK Deemer, R Prior, D Huang, J. Agric, Food Chem: 50(10); 2772-2777, 2002.
The Fenton reaction was initiated with the mixture of Cu^2+, CaCl2 and hydrogen peroxide at alkaline condition. Hydroxyl radicals were generated by the Fenton reagent mixture, oxidative damage was monitored by fluorescein (FL), a fluorescence probe sensitive to hydroxyl radicals. The loss of fluorescence intensity was an index of oxidation. Thus, the slower the fluorescence decay, the stronger the chelation for Cu^2+.

Compound	Chelating ability for copper, in words	Fluorescence decay of fluorescein (FL), in words	Chelation of Cu^2+ preventing the Fenton reaction, in words (equimolar amounts (230 μM) of compound and Cu^2+)	Attraction for calcium, in words (excess Ca^2+)
O=C(O)CC(NCCNC(CC(=O)O)C(=O)O)C(=O)O (stereo not shown) [EDDS, Ethylenediamine-N,N′-disuccinic acid, reference compound]	not an effective chelating agent for copper	barely noted	–	–
O=C(O)CN(CCN(CC(=O)O)CC(=O)O)CC(=O)O [EDTA, Ethylenediamine tetraacetic acid, reference compound]	–	barely noted	–	–
COc1cc(C=C(C(C)=O)C(C)=O)cc(OC)c1OC [Compd. 1E, 3-(3,4,5-trimethoxybenzylidene) 2,4-pentanedione]	excellent chelating ability for copper	barely noted	almost completely chelated	little attraction for calcium

Reference: patent publication US20150182431A1, “Compositions and Methods for Treatment of Hair with Reduced Hair Damage” (SYTHEON LTD, priority 2013, published 2015)
